Experimental data from patent publication US20260293894A1, “FUSED PYRROLIDINE-2-ONE HERBICIDAL COMPOUNDS” (SYNGENTA CROP PROTECTION AG, priority 2023, published 2026).

Experiments:
Format in all cases: in vivo
Conditions in all cases: 1000 g/Ha, evaluated after 13 days, glasshouse
[1] = tested on: Amaranthus palmeri (AMAPA); test: Pre-emergence herbicidal activity, percentage damage to AMAPA
Description: (§1) Seeds of a variety of test species are sown in standard soil in pots Amaranthus palmeri (AMAPA), Amaranthus retroflexus (AMARE), Setaria faberi (SETFA), Echinochloa crus-galli (ECHCG), Ipomoea hederacea (IPOHE),). After cultivation for one day (pre-emergence) or after 8 days cultivation (post-emergence) under controlled conditions in a glasshouse (at 24/160C, day/night; 14 hours light; 65% humidity), the plants are sprayed with an aqueous spray solution derived from the dissolution of the technical active ingredient in a small amount of acetone and a special solvent and emulsifier mixture referred to as IF50 (11.12% Emulsogen EL360 TM+44.44% N-methylpyrrolidone+44.44% Dowanol DPM glycol ether, which was then diluted to required concentration using 0.2% Genapol XO80 (CAS No. 9043-30-5) in water as the diluent. Compounds are applied at the rates stated. The test plants are then grown in a glasshouse under controlled conditions in a glasshouse (at 24/160C, day/night; 14 hours light; 65% humidity) and watered twice daily. After 13 days for pre and post-emergence, the test is evaluated for the percentage damage caused to the plant. The biological activities are shown in the following table on a five-point scale (5=81-100%; 4=61-80%; 3=41-60%; 2=21-40%; 1=0-20%; NT=not tested).

[2] = tested on: Echinochloa crus-galli (ECHCG); test: Pre-emergence herbicidal activity, percentage damage to ECHCG
Description: as §1

Setaria faberi (SETFA) [3] = test: Pre-emergence herbicidal activity, percentage damage to SETFA
Description: as §1

[4] = tested on: Amaranthus retroflexus (AMARE); test: Pre-emergence herbicidal activity, percentage damage to AMARE
Description: as §1

[5] = tested on: Ipomoea hederacea (IPOHE); test: Post-emergence herbicidal activity, percentage damage to IPOHE
Description: as §1

[6] = tested on: Ipomoea hederacea (IPOHE); test: Pre-emergence herbicidal activity, percentage damage to IPOHE
Description: as §1

[7] = tested on: Amaranthus retroflexus (AMARE); test: Post-emergence herbicidal activity, percentage damage to AMARE
Description: as §1

[8] = tested on: Echinochloa crus-galli (ECHCG); test: Post-emergence herbicidal activity, percentage damage to ECHCG
Description: as §1

[9] = tested on: Amaranthus palmeri (AMAPA); test: Post-emergence herbicidal activity, percentage damage to AMAPA
Description: as §1

Setaria faberi (SETFA) [10] = test: Post-emergence herbicidal activity, percentage damage to SETFA
Description: as §1

**Q.** Which results are given for `O=C(O)C[C@H]1[C@@H]2C[C@@H]2C(=O)N1Cc1cccc(F)c1F` (relative stereo) [Compound A.04, 2-[(1R*,2S*,5S*)-3-[(2,3-difluorophenyl)methyl]-4-oxo-3-azabicyclo[3.1.0]hexan-2-yl]acetic acid]?
**A.** percentage damage caused to the plant (AMAPA) [1]: 2 (21-40%); percentage damage caused to the plant (ECHCG) [2]: 2 (21-40%); percentage damage caused to the plant (SETFA) (Setaria faberi (SETFA) [3]): 3 (41-60%); percentage damage caused to the plant (AMARE) [4]: 2 (21-40%); percentage damage caused to the plant (IPOHE) [5]: 1 (0-20%); percentage damage caused to the plant (IPOHE) [6]: 1 (0-20%); percentage damage caused to the plant (AMARE) [7]: 1 (0-20%); percentage damage caused to the plant (ECHCG) [8]: 3 (41-60%); percentage damage caused to the plant (AMAPA) [9]: 1 (0-20%); percentage damage caused to the plant (SETFA) (Setaria faberi (SETFA) [10]): 4 (61-80%)

**Q.** `COC(=O)C[C@@H]1[C@@H]2C[C@@H]2C(=O)N1Cc1cccc(F)c1F` (relative stereo) [Compound A.07, methyl 2-[(1R*,2R*,5S*)-3-[(2,3-difluorophenyl)methyl]-4-oxo-3-azabicyclo[3.1.0]hexan-2-yl]acetate] was tested. Which “percentage damage caused to the plant (AMAPA)” value [1] did it give?
**A.** 3 (41-60%)

**Q.** And the “percentage damage caused to the plant (ECHCG)” value [2]?
**A.** 4 (61-80%)

**Q.** What about the “percentage damage caused to the plant (SETFA)” value (Setaria faberi (SETFA) [3]) of the same molecule?
**A.** 5 (81-100%)

**Q.** And the “percentage damage caused to the plant (AMARE)” value [4]?
**A.** 4 (61-80%)

**Q.** And the “percentage damage caused to the plant (IPOHE)” value [5]?
**A.** 3 (41-60%)

**Q.** And the “percentage damage caused to the plant (IPOHE)” value [6]?
**A.** 2 (21-40%)

**Q.** What about the “percentage damage caused to the plant (AMARE)” value [7] of the same molecule?
**A.** 3 (41-60%)

**Q.** And the “percentage damage caused to the plant (ECHCG)” value [8]?
**A.** 3 (41-60%)

**Q.** And the “percentage damage caused to the plant (AMAPA)” value [9]?
**A.** 3 (41-60%)

**Q.** What about the “percentage damage caused to the plant (SETFA)” value (Setaria faberi (SETFA) [10]) of the same molecule?
**A.** 4 (61-80%)

**Q.** For `O=C(O)C[C@@H]1[C@@H]2C[C@@H]2C(=O)N1Cc1ccc(F)c(F)c1F` (relative stereo) [Compound A.13, 2-[(1R*,2R*,5S*)-3-[(2,3,4-trifluorophenyl)methyl]-4-oxo-3-azabicyclo[3.1.0]hexan-2-yl]acetic acid], which “percentage damage caused to the plant (AMAPA)” value [1] is on record?
**A.** 3 (41-60%)

**Q.** And the “percentage damage caused to the plant (ECHCG)” value [2]?
**A.** 3 (41-60%)

**Q.** And the “percentage damage caused to the plant (SETFA)” value (Setaria faberi (SETFA) [3])?
**A.** 5 (81-100%)

**Q.** And the “percentage damage caused to the plant (AMARE)” value [4]?
**A.** 4 (61-80%)

**Q.** And the “percentage damage caused to the plant (IPOHE)” value [5]?
**A.** 2 (21-40%)

**Q.** What about the “percentage damage caused to the plant (IPOHE)” value [6] of the same molecule?
**A.** 4 (61-80%)

**Q.** What about the “percentage damage caused to the plant (AMARE)” value [7] of the same molecule?
**A.** 3 (41-60%)

**Q.** What about the “percentage damage caused to the plant (ECHCG)” value [8] of the same molecule?
**A.** 3 (41-60%)

**Q.** And the “percentage damage caused to the plant (AMAPA)” value [9]?
**A.** 2 (21-40%)

**Q.** And the “percentage damage caused to the plant (SETFA)” value (Setaria faberi (SETFA) [10])?
**A.** 5 (81-100%)

**Q.** Which “percentage damage caused to the plant (AMAPA)” value [1] does the source give for `O=C(O)C[C@H]1[C@@H]2CCCC[C@@H]2C(=O)N1Cc1cccc(F)c1F` (relative stereo) [E.04, 2-[(1S*,3aS*,7aR*)-2-[(2,3-difluorophenyl)methyl]-3-oxo-3a,4,5,6,7,7a-hexahydro-1H-isoindol-1-yl]acetic acid] here?
**A.** 4 (61-80%)

**Q.** And the “percentage damage caused to the plant (ECHCG)” value [2]?
**A.** 1 (0-20%)

**Q.** And the “percentage damage caused to the plant (SETFA)” value (Setaria faberi (SETFA) [3])?
**A.** 3 (41-60%)

**Q.** And the “percentage damage caused to the plant (AMARE)” value [4]?
**A.** 4 (61-80%)

**Q.** What about the “percentage damage caused to the plant (IPOHE)” value [5] of the same molecule?
**A.** 1 (0-20%)

**Q.** And the “percentage damage caused to the plant (IPOHE)” value [6]?
**A.** 1 (0-20%)

**Q.** And the “percentage damage caused to the plant (AMARE)” value [7]?
**A.** 1 (0-20%)

**Q.** What about the “percentage damage caused to the plant (ECHCG)” value [8] of the same molecule?
**A.** 1 (0-20%)

**Q.** What about the “percentage damage caused to the plant (AMAPA)” value [9] of the same molecule?
**A.** 1 (0-20%)

**Q.** And the “percentage damage caused to the plant (SETFA)” value (Setaria faberi (SETFA) [10])?
**A.** 1 (0-20%)
